Results on three compounds are retold here after EP0181129B1, “N6-substituted deoxyribose analogs of adenosines” (WARNER-LAMBERT COMPANY, priority 1984, dated 1986).

Molecules are shown by their SMILES. Values joined by “and” are separate entries in the source; they are usually repeats but may differ in a detail not shown here. Equal values may be shown once.

The subject of this data set is Swiss-Webster male mice. Kind of data set: Mouse Activity and Screen Test Procedure (MAST). Particulars: for Inhibition of Mouse Locomotor Activity: one hour prior to testing; for Screen Test Failure: percent of mice falling off the screen. The data set is classed as in vivo. An excerpt:
The compounds of the invention are new chemical substances which are useful as pharmaceutical agents for the treatment of psychoses. The antipsychotic activity of representative compounds of the invention was established by the Mouse Activity and Screen Test Procedure (MAST) described below.
Nine unfasted Swiss-Webster male mice weighing 20-30 g are equally divided into three groups for each drug dose to be tested. That is, data for each dose level was generated by three separate groups of three mice each.
A minimum of three dose levels (10, 30, and 100 mg/kg) are tested for each drug. Treatments are administered intraperitoneally one hour prior to testing. All dosages are calculated as parent compound and given in volumes of 10 ml/kg. Compounds are dissolved or suspended in 0.2% Methocel. Control animals are injected with Methocel.
A two part testing procedure is started one hour post injection. First, the screen test (ST) is performed (see Pharmac. Biochem. Behav. 6, 351-353, 1977). Briefly this test consists of placing mice on individual wire screens which are then rotated 180 degrees at the start of a 60 second observation period. The number of mice falling off the inverted screen is recorded.
Immediately following the screen test, the final phase of testing is initiated by placing each group of three mice in one actophotometer (Life Sciences, 22,1067-1076,1978). The actophotometer consists of a cylindrical chamber whose center is occupied by another cylinder which contains the illumination for six photocells located on the perimeter of the chamber. Six light-beam interruptions equal one count. Locomotor activity is recorded by computer at ten minutes intervals for 60 minutes.
The data obtained from the screen test are expressed as percent of mice falling off the screen. Data derived from locomotor activity of drug treated mice are compared to the activity of vehicle treated animals and are expressed as percent inhibition of spontaneous locomotion. All percentages reported for inhibition of locomotion (LI) are based upon data accumulated for one hour. Both phases of testing are graded: A=60-100%; C=31-59%; and N=0-30%. An overall dose rating is obtained by the following criteria:
LAD refers to the lowest dose at which an A rating is achieved. […] Utilizing this procedure, an overall dose rating of A was obtained for the noted compound at the indicated dose. The compounds are identified in the Examples.

Setting [1] is: Dose 10 mg/kg intraperitoneally.
The mark [2] stands for this setting: Dose 30 mg/kg intraperitoneally.
The mark [3] stands for this setting: Dose 0.3 mg/kg intraperitoneally.

As to `C[C@H]1O[C@@H](n2cnc3c(NC4CCCc5ccccc54)ncnc32)[C@H](O)[C@@H]1O` (stereo partly shown) [Example 19, N^6-1-Tetralinyl-5' -deoxyadenosine], the “Inhibition of Mouse Locomotor Activity” value was found to be 36% (Dose 3 mg/kg intraperitoneally), 55% under setting [1] and 83% under setting [2]. Besides, the “Screen Test Failure” value (Dose 3 mg/kg intraperitoneally) stood at 11%, the “Screen Test Failure” value under setting [1] turned out to be 0% and the “Screen Test Failure” value under setting [2] stood at 0%.

Consider `C[C@H]1O[C@@H](n2cnc3c(NCc4cccc5ccccc45)ncnc32)[C@H](O)[C@@H]1O` [Example 20, N^6-α-Naphthylmethyl-5' -deoxyadenosine], for which the “Inhibition of Mouse Locomotor Activity” value by setting is: (Dose 3 mg/kg intraperitoneally) −1%; under setting [1], 49%; under setting [2], 81%. Also, the “Screen Test Failure” value came to 0% (Dose 3 mg/kg intraperitoneally), 0% under setting [1] and 0% under setting [2].

On to `O[C@@H]1[C@H](O)[C@@H](CCl)O[C@H]1n1cnc2c(NC3CCc4ccccc43)ncnc21` (stereo partly drawn) [Example 23, (R)-N^6(1-Indanyl)-5'-deoxy-5'-chloroadenosine], for which the “Inhibition of Mouse Locomotor Activity” value under setting [3] was −2%; the “Inhibition of Mouse Locomotor Activity” value (Dose 1 mg/kg intraperitoneally, 1 mg/kg) was 0% and 7%; the “Inhibition of Mouse Locomotor Activity” value (Dose 3 mg/kg intraperitoneally) was determined as 48%; the “Inhibition of Mouse Locomotor Activity” value under setting [1] came out at 76%; the “Inhibition of Mouse Locomotor Activity” value under setting [2] is reported as 81%. Moreover, the “Screen Test Failure” value under setting [3] is 0%; the “Screen Test Failure” value (Dose 1 mg/kg intraperitoneally) was 0%; the “Screen Test Failure” value (Dose 3 mg/kg intraperitoneally) was determined as 0%; the “Screen Test Failure” value under setting [1] worked out at 0%; the “Screen Test Failure” value under setting [2] came to 0%.
